Measurements reported in the kinase profiling compilation of Christmann-Franck et al. (2016).
Values joined by “and” are separate entries in the source; they are usually repeats but may differ in a detail not shown here. Equal values may be shown once.

Assays:
Test in all cases: radiometric filter-binding kinase assay, Kinase HotSpot
Conditions in all cases: compound 0.5 µM; ATP 10 µM
RPS6KB2 (human) = RPS6KB2 (human) (UniProt Q9UBS0)
NEK9 (human) = NEK9 (human) (UniProt Q8TD19)
DAPK1 (human) = DAPK1 (human) (UniProt P53355)
PDPK1 (human) = PDPK1 (human) (UniProt O15530)
WEE1 (human) = WEE1 (human) (UniProt P30291)
RPS6KA1 KD1 KD2 (human) = RPS6KA1 KD1 KD2 (human) (UniProt Q15418)
LCK (human) = LCK (human) (UniProt P06239)
DMPK (human) = DMPK (human) (UniProt Q09013)
PIM1 (human) = PIM1 (human) (UniProt P11309)
TNK2 (human) = TNK2 (human) (UniProt Q07912)
HCK (human) = HCK (human) (UniProt P08631)
DCLK2 (human) = DCLK2 (human) (UniProt Q8N568)
AKT1 (human) = AKT1 (human) (UniProt P31749)
CAMK2B (human) = CAMK2B (human) (UniProt Q13554)
PRKCH (human) = PRKCH (human) (UniProt P24723)
PLK3 (human) = PLK3 (human) (UniProt Q9H4B4)
CDK1 CCNA2 (human) = CDK1 CCNA2 (human) (UniProt P06493+P20248)
LYN (human) = LYN (human) (UniProt P07948)
MAPK9 (human) = MAPK9 (human) (UniProt P45984)
MAPKAPK3 (human) = MAPKAPK3 (human) (UniProt Q16644)
ZAP70 (human) = ZAP70 (human) (UniProt P43403)
IRAK4 (human) = IRAK4 (human) (UniProt Q9NWZ3)
TAOK1 (human) = TAOK1 (human) (UniProt Q7L7X3)
TLK2 (human) = TLK2 (human) (UniProt Q86UE8)
CAMK4 (human) = CAMK4 (human) (UniProt Q16566)
PASK (human) = PASK (human) (UniProt Q96RG2)
MAPK14 (human) = MAPK14 (human) (UniProt Q16539)
SRPK1 (human) = SRPK1 (human) (UniProt Q96SB4)
CDK4 CCND1 (human) = CDK4 CCND1 (human) (UniProt P24385+P11802)
FLT1 (human) = FLT1 (human) (UniProt P17948)
ROS1 (human) = ROS1 (human) (UniProt P08922)
GRK6 (human) = GRK6 (human) (UniProt P43250)
PAK1 (human) = PAK1 (human) (UniProt Q13153)
BLK (human) = BLK (human) (UniProt P51451)
[1] = target: JAK1 JH1 catalytic (human) (UniProt P23458)
JAK2 JH1 JH2 (human) = JAK2 JH1 JH2 (human) (UniProt O60674)
PDGFRA (human) = PDGFRA (human) (UniProt P16234)
FER (human) = FER (human) (UniProt P16591)
PRKD3 (human) = PRKD3 (human) (UniProt O94806)
PAK2 (human) = PAK2 (human) (UniProt Q13177)
CSNK1G1 (human) = CSNK1G1 (human) (UniProt Q9HCP0)
TBK1 (human) = TBK1 (human) (UniProt Q9UHD2)

Sequence of PRKCH (human) (P24723 whole entry, looked up): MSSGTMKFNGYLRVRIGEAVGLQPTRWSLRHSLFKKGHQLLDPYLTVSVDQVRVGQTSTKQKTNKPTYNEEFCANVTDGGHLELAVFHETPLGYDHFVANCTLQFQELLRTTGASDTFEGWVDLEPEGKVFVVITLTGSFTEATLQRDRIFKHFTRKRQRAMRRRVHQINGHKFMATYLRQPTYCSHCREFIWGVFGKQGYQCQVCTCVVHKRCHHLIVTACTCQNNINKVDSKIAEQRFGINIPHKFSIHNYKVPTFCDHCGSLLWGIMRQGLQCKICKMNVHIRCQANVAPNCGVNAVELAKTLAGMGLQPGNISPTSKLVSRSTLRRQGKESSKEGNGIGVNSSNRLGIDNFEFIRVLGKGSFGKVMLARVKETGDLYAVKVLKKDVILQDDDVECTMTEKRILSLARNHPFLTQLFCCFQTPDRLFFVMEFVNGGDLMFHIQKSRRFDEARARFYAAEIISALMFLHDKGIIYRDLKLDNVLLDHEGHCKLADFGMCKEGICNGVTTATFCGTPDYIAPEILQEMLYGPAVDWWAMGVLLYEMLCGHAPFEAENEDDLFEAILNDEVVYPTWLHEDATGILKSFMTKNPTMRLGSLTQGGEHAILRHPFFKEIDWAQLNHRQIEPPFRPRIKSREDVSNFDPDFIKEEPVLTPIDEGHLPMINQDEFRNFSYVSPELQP
Sequence of FER (human) (P16591 whole entry, looked up): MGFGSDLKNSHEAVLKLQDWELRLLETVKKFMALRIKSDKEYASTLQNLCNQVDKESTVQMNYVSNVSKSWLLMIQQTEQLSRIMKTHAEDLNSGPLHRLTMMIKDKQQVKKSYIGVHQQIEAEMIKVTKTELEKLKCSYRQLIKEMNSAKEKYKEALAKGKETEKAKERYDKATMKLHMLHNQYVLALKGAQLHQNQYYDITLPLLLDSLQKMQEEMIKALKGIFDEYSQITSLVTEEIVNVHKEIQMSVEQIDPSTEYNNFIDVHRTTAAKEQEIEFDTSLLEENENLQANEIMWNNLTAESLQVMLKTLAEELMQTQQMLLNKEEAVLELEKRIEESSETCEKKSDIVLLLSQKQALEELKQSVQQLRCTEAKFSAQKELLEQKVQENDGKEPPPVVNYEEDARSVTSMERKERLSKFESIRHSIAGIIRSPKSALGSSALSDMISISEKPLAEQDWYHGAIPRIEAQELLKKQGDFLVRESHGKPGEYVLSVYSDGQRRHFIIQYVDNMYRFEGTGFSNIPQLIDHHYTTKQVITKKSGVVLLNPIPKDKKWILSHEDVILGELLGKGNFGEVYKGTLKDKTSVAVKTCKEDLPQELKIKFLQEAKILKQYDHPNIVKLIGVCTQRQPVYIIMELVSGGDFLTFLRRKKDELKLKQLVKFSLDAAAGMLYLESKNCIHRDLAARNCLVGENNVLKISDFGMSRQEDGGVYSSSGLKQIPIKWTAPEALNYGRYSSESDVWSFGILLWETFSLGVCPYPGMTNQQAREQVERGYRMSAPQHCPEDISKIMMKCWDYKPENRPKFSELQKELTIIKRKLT
Sequence of LYN (human) (P07948 whole entry, looked up): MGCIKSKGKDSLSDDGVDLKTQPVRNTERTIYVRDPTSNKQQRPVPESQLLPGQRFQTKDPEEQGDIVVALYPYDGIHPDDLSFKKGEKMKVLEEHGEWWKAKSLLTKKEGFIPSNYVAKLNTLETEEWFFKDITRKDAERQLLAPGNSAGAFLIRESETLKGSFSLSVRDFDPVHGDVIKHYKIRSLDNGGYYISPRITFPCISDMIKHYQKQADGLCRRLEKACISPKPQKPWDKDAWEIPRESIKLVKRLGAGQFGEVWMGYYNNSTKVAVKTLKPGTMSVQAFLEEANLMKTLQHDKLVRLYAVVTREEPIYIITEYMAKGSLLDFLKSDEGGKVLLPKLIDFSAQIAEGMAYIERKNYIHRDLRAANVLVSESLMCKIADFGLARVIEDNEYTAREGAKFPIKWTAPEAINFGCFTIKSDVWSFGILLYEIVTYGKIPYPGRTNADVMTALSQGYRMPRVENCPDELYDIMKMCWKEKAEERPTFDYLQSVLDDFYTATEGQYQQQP
Sequence of MAPKAPK3 (human) (Q16644 whole entry, looked up): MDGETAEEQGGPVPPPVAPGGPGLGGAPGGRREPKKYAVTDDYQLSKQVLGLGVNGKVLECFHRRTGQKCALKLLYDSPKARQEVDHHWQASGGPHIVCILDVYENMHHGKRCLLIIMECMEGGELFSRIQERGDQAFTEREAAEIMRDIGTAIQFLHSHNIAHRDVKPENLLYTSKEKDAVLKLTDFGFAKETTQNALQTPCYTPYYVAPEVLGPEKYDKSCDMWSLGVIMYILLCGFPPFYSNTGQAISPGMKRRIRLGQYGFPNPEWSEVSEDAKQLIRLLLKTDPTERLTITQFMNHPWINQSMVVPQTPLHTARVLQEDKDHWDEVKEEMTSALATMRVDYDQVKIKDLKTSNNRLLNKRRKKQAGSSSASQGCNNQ
Sequence of SRPK1 (human) (Q96SB4 whole entry, looked up): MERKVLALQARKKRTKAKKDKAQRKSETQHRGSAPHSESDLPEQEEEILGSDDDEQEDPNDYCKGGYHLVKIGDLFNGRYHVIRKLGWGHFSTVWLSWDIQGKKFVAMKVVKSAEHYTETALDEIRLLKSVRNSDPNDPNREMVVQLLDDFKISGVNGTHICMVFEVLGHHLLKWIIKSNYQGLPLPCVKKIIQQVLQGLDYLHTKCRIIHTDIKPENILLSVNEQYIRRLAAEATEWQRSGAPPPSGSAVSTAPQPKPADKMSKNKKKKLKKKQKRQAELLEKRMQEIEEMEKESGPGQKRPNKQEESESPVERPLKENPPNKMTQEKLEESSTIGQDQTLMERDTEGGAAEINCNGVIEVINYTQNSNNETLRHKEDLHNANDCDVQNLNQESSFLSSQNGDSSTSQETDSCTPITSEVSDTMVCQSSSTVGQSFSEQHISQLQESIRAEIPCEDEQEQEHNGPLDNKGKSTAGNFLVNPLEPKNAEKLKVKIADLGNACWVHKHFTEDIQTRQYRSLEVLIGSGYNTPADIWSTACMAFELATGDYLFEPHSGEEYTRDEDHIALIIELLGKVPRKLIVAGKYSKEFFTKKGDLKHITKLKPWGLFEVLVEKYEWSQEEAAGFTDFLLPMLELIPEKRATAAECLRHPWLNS
Sequence of TLK2 (human) (Q86UE8 whole entry, looked up): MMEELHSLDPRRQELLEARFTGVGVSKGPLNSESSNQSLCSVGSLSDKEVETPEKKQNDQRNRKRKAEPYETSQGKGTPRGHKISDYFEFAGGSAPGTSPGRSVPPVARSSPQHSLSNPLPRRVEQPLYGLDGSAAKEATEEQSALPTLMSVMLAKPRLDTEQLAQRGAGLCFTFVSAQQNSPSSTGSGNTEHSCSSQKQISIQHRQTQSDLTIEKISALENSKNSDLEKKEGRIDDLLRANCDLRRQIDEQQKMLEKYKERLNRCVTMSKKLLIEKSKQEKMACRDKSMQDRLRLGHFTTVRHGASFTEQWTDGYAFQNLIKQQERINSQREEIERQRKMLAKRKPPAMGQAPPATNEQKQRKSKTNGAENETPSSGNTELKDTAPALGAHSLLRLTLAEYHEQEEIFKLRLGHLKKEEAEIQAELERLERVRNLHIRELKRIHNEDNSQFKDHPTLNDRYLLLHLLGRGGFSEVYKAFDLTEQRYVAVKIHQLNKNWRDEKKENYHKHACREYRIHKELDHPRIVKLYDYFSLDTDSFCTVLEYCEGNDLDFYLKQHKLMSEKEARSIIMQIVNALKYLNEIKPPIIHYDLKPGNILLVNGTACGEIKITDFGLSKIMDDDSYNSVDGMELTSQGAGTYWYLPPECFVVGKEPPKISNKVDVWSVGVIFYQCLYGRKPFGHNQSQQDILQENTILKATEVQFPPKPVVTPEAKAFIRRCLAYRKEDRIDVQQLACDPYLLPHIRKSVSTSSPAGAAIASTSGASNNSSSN
Sequence of PIM1 (human) (P11309 whole entry, looked up): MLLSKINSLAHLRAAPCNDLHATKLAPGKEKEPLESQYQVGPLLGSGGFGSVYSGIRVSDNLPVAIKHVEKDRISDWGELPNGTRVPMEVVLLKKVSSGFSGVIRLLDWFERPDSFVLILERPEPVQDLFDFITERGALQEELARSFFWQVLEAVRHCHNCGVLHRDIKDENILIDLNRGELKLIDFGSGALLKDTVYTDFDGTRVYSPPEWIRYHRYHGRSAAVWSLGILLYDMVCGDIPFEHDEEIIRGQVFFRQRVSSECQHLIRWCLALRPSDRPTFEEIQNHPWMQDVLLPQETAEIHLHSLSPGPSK
Sequence of RPS6KB2 (human) (Q9UBS0 whole entry, looked up): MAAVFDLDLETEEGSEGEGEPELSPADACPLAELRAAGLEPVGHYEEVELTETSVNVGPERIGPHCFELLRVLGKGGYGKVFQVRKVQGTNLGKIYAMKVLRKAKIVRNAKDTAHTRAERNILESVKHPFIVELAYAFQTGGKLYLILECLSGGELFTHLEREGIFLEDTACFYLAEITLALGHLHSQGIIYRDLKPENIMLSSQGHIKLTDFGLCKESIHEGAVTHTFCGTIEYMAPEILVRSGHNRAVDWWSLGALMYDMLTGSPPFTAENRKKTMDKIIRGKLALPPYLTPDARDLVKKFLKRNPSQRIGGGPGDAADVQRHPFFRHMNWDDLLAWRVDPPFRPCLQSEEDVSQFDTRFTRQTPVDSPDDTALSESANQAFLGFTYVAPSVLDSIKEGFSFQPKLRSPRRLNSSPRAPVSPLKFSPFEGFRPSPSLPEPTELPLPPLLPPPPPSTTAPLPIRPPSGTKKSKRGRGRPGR
Sequence of MAPK14 (human) (Q16539 whole entry, looked up): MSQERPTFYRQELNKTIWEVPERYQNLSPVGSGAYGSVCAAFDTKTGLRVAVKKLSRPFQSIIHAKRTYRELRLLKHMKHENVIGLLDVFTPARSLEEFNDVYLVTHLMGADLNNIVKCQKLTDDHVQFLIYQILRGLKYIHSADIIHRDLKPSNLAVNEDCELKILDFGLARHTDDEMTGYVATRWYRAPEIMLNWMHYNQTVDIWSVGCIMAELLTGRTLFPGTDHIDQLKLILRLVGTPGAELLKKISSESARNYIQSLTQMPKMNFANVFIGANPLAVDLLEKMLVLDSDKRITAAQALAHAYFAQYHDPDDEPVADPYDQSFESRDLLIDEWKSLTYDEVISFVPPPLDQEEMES

O=C1NC(=O)C(c2cn(CCCn3ccnc3)c3ccccc23)=C1Nc1ccccc1
residual activity (RPS6KB2 (human)): 86.1%
residual activity (NEK9 (human)): 89.1%
residual activity (DAPK1 (human)): 99.2%
residual activity (PDPK1 (human)): 80.3%
residual activity (WEE1 (human)): 95.8%
residual activity (RPS6KA1 KD1 KD2 (human)): 7.54%
residual activity (LCK (human)): 99.4%
residual activity (DMPK (human)): 104%
residual activity (PIM1 (human)): 79.1%
residual activity (TNK2 (human)): 65.9%
residual activity (HCK (human)): 97.9%
residual activity (DCLK2 (human)): 96.3%
residual activity (AKT1 (human)): 101%
residual activity (CAMK2B (human)): 93.8%
residual activity (PRKCH (human)): 29.7%
residual activity (PLK3 (human)): 99.8%
residual activity (CDK1 CCNA2 (human)): 88.9%
residual activity (LYN (human)): 103% and 96.4%
residual activity (MAPK9 (human)): 101%
residual activity (MAPKAPK3 (human)): 92.4%
residual activity (ZAP70 (human)): 104%
residual activity (IRAK4 (human)): 89.5%
residual activity (TAOK1 (human)): 101%
residual activity (TLK2 (human)): 74.1%
residual activity (CAMK4 (human)): 103%
residual activity (PASK (human)): 98%
residual activity (MAPK14 (human)): 88.3%
residual activity (SRPK1 (human)): 99.5%
residual activity (CDK4 CCND1 (human)): 99.1%
residual activity (FLT1 (human)): 85.7%
residual activity (ROS1 (human)): 78.7%
residual activity (GRK6 (human)): 98.4%
residual activity (PAK1 (human)): 92.9%
residual activity (BLK (human)): 90.9%
residual activity [1]: 82.1%
residual activity (JAK2 JH1 JH2 (human)): 84.3%
residual activity (PDGFRA (human)): 94.1%
residual activity (FER (human)): 56.1%
residual activity (PRKD3 (human)): 80%
residual activity (PAK2 (human)): 88.5%
residual activity (CSNK1G1 (human)): 95%
residual activity (TBK1 (human)): 48%

O=C1Nc2ccc(Cl)cc2/C1=C/c1cc(Cl)c(O)c(Cl)c1
residual activity (RPS6KB2 (human)): 98.2%
residual activity (NEK9 (human)): 103%
residual activity (DAPK1 (human)): 90%
residual activity (PDPK1 (human)): 103%
residual activity (WEE1 (human)): 79.1%
residual activity (RPS6KA1 KD1 KD2 (human)): 48.4%
residual activity (LCK (human)): 88.2%
residual activity (DMPK (human)): 112%
residual activity (PIM1 (human)): 19.4%
residual activity (TNK2 (human)): 32.4%
residual activity (HCK (human)): 83.2%
residual activity (DCLK2 (human)): 98%
residual activity (AKT1 (human)): 97.9%
residual activity (CAMK2B (human)): 92%
residual activity (PRKCH (human)): 90.8%
residual activity (PLK3 (human)): 98.2%
residual activity (CDK1 CCNA2 (human)): 91.9%
residual activity (LYN (human)): 81.6% and 87.5%
residual activity (MAPK9 (human)): 100%
residual activity (MAPKAPK3 (human)): 88.4%
residual activity (ZAP70 (human)): 95%
residual activity (IRAK4 (human)): 101%
residual activity (TAOK1 (human)): 71.6%
residual activity (TLK2 (human)): 105%
residual activity (CAMK4 (human)): 96.8%
residual activity (PASK (human)): 70%
residual activity (MAPK14 (human)): 74.6%
residual activity (SRPK1 (human)): 106%
residual activity (CDK4 CCND1 (human)): 94.7%
residual activity (FLT1 (human)): 85%
residual activity (ROS1 (human)): 89.7%
residual activity (GRK6 (human)): 89.6%
residual activity (PAK1 (human)): 97.2%
residual activity (BLK (human)): 102%
residual activity [1]: 103%
residual activity (JAK2 JH1 JH2 (human)): 91.1%
residual activity (PDGFRA (human)): 70.3%
residual activity (FER (human)): 92.1%
residual activity (PRKD3 (human)): 80.7%
residual activity (PAK2 (human)): 96.8%
residual activity (CSNK1G1 (human)): 89%
residual activity (TBK1 (human)): 86.8%

Nc1ncnc2c1c(-c1ccc(Oc3ccccc3)cc1)cn2C1CCCC1
residual activity (RPS6KB2 (human)): 107%
residual activity (NEK9 (human)): 96.6%
residual activity (DAPK1 (human)): 79.1%
residual activity (PDPK1 (human)): 102%
residual activity (WEE1 (human)): 77.8%
residual activity (RPS6KA1 KD1 KD2 (human)): 94.2%
residual activity (LCK (human)): 1.12%
residual activity (DMPK (human)): 136%
residual activity (PIM1 (human)): 92.4%
residual activity (TNK2 (human)): 2.7%
residual activity (HCK (human)): 2.18%
residual activity (DCLK2 (human)): 99.5%
residual activity (AKT1 (human)): 103%
residual activity (CAMK2B (human)): 102%
residual activity (PRKCH (human)): 92.6%
residual activity (PLK3 (human)): 105%
residual activity (CDK1 CCNA2 (human)): 93.7%
residual activity (LYN (human)): 3.49% and 5.13%
residual activity (MAPK9 (human)): 100%
residual activity (MAPKAPK3 (human)): 109%
residual activity (ZAP70 (human)): 102%
residual activity (IRAK4 (human)): 98.5%
residual activity (TAOK1 (human)): 84.6%
residual activity (TLK2 (human)): 112%
residual activity (CAMK4 (human)): 101%
residual activity (PASK (human)): 98.5%
residual activity (MAPK14 (human)): 76.3%
residual activity (SRPK1 (human)): 105%
residual activity (CDK4 CCND1 (human)): 121%
residual activity (FLT1 (human)): 76.9%
residual activity (ROS1 (human)): 101%
residual activity (GRK6 (human)): 92.6%
residual activity (PAK1 (human)): 96%
residual activity (BLK (human)): 1.52%
residual activity [1]: 111%
residual activity (JAK2 JH1 JH2 (human)): 104%
residual activity (PDGFRA (human)): 65%
residual activity (FER (human)): 88.1%
residual activity (PRKD3 (human)): 89.4%
residual activity (PAK2 (human)): 106%
residual activity (CSNK1G1 (human)): 90.8%
residual activity (TBK1 (human)): 92.7%

Nc1ccc2ncnc(NCCc3ccc(Oc4ccccc4)cc3)c2c1
residual activity (RPS6KB2 (human)): 99.2%
residual activity (NEK9 (human)): 95.8%
residual activity (DAPK1 (human)): 110%
residual activity (PDPK1 (human)): 105%
residual activity (WEE1 (human)): 86.2%
residual activity (RPS6KA1 KD1 KD2 (human)): 108%
residual activity (LCK (human)): 98.3%
residual activity (DMPK (human)): 94.2%
residual activity (PIM1 (human)): 102%
residual activity (TNK2 (human)): 102%
residual activity (HCK (human)): 96.4%
residual activity (DCLK2 (human)): 99.1%
residual activity (AKT1 (human)): 98.2%
residual activity (CAMK2B (human)): 95.1%
residual activity (PRKCH (human)): 97.9%
residual activity (PLK3 (human)): 98.7%
residual activity (CDK1 CCNA2 (human)): 98.9%
residual activity (LYN (human)): 101% and 103%
residual activity (MAPK9 (human)): 85%
residual activity (MAPKAPK3 (human)): 101%
residual activity (ZAP70 (human)): 93.2%
residual activity (IRAK4 (human)): 92.4%
residual activity (TAOK1 (human)): 84.2%
residual activity (TLK2 (human)): 92.8%
residual activity (CAMK4 (human)): 98.9%
residual activity (PASK (human)): 103%
residual activity (MAPK14 (human)): 95.7%
residual activity (SRPK1 (human)): 99.8%
residual activity (CDK4 CCND1 (human)): 102%
residual activity (FLT1 (human)): 96%
residual activity (ROS1 (human)): 97.8%
residual activity (GRK6 (human)): 99.3%
residual activity (PAK1 (human)): 94.9%
residual activity (BLK (human)): 97.1%
residual activity [1]: 94.6%
residual activity (JAK2 JH1 JH2 (human)): 103%
residual activity (PDGFRA (human)): 98.5%
residual activity (FER (human)): 99.5%
residual activity (PRKD3 (human)): 98.1%
residual activity (PAK2 (human)): 102%
residual activity (CSNK1G1 (human)): 97.6%
residual activity (TBK1 (human)): 100%
